Values joined by “and” are separate entries in the source; they are usually repeats but may differ in a detail not shown here. Equal entries are not always repeated. Where two headings read alike, the source gives them in different places.
Biological target: integrin αvβ3 (Homo sapiens, UniProt P05106+P06756)
Settings: for decrease in BpND after blocking with an excess amount of unlabeled RGD peptide: blocked vs unblocked; for tumor washout (time-activity curves): MDA-MB-435 tumor, unblocked
[1] = Blocked: c(RGDyK) injected 10 min before scanning, tumor region, MDA-MB-435 tumor-bearing mice, 60-min dynamic PET, mean ± SD, n = 4/group
[2] = Blocked: c(RGDyK) injected 10 min before scanning, tumor region, MDA-MB-435 tumor-bearing mice, 60-min dynamic PET, three-compartment model fit, mean ± SD, n = 4/group
[3] = MDA-MB-435 tumor-bearing mice, n = 4/group
[4] = 60-min dynamic PET, n = 4/group

integrin αvβ3, sequence (P06756 31-889 limits assumed): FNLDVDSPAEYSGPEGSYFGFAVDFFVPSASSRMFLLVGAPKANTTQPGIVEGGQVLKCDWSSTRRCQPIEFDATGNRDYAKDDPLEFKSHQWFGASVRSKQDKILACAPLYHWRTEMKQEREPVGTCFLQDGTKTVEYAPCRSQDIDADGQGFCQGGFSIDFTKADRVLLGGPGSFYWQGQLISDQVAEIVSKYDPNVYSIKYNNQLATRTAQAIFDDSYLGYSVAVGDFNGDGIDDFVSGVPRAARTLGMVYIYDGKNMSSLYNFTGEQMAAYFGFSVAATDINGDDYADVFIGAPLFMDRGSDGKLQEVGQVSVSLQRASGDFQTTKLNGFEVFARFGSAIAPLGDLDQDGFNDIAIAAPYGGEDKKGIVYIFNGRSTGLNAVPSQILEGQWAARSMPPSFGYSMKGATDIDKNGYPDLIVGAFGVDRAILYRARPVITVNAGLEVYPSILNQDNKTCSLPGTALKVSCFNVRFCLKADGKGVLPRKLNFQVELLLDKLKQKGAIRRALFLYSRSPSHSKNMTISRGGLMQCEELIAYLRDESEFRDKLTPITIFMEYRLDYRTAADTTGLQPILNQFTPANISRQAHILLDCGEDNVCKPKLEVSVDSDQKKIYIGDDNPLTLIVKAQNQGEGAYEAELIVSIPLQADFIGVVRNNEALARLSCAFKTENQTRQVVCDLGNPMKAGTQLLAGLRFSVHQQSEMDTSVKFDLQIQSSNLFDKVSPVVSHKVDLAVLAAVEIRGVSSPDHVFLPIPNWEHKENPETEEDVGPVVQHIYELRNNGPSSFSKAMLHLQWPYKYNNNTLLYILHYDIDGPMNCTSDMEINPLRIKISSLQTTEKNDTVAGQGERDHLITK
integrin αvβ3, sequence (P06756 891-1048 partner limits assumed): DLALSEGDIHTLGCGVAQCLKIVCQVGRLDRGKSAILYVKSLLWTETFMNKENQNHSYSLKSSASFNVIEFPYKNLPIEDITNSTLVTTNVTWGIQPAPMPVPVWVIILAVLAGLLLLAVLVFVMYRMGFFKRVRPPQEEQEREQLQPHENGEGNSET
integrin αvβ3, sequence (P05106 27-788): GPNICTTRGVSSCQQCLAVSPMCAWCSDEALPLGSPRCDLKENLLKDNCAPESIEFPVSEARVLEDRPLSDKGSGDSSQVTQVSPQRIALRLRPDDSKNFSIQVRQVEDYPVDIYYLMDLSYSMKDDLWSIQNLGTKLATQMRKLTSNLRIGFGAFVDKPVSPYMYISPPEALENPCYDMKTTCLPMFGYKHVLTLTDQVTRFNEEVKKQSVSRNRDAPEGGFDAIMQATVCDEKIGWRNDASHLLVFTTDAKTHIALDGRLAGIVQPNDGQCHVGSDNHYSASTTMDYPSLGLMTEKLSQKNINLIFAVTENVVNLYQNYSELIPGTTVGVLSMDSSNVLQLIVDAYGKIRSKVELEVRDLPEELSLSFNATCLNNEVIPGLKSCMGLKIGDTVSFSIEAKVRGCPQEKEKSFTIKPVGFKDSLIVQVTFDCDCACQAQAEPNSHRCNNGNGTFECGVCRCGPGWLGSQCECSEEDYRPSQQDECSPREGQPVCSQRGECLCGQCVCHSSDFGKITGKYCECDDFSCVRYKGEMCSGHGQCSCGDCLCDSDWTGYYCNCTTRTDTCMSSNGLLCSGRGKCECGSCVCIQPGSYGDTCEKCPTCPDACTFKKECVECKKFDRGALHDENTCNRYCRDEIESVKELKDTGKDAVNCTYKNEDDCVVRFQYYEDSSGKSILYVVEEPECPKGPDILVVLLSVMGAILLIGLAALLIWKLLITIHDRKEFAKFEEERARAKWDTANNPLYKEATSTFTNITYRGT

Row | Substance | BpND (binding potential = k3/k4) [1] | k3 (on-rate for specific binding) [2] [min⁻¹] | BpND (binding potential = k3/k4) (Unblock, tumor region, MDA-MB-435 tumor-bearing mice, 60-min dynamic PET, three-compartment model, mean ± SD, n = 4/group, listed as RGD Monomer) | decrease in BpND after blocking with an excess amount of unlabeled RGD peptide [3] | K1 (transfer from arterial plasma to tissue) (mouse, in vivo) [mL/g/min] | tumor washout (time-activity curves) [4] | BpND (binding potential = k3/k4) (Unblock, tumor region, MDA-MB-435 tumor-bearing mice, 60-min dynamic PET, three-compartment model, mean ± SD, n = 4/group) | k2 (clearance from tissue) (mouse, in vivo) [min⁻¹] | k4 (target dissociation rate) [2] [min⁻¹] | BpND (binding potential = k3/k4) (Unblock, tumor region, MDA-MB-435 tumor-bearing mice, 60-min dynamic PET, three-compartment model, mean ± SD, n = 4/group, listed as RGD Dimer) | specific bound component (Cm) in the tumor region relative to the monomer (at 1-h, separated by model fitting)
1 | ^18F-FP-c(RGDyK) [^18F-FPRGD] | 1.110±0.155 | 0.051 ± 0.016 | 2.747±0.483 | ~ 60% | 0.276 ± 0.256 | – | – | – | – | – | –
2 | ^18F-FP-c(RADyK) [^18F-FPRAD, reference compound] | – | – | – | – | – | most rapid tumor washout | 0.89 ± 0.19 and 0.893±0.192 | 0.334 ± 0.092 | – | – | –
3 | ^18F-FP-PEG3-E[c(RGDyK)]2 [^18F-FPPRGD2] | 1.257±0.293 | 0.064 ± 0.023 | – | ~ 80% | 0.082 ± 0.031 | much slower tumor washout | – | – | 0.050 ± 0.009 | 5.865±0.312 | almost twice as much
